Counter-ions that a name gives are not always drawn. Peptide text beside a SMILES is read from it. * marks the point of attachment. Tfa = O=C(C(F)(F)F)*

The first experiment in a line: Compound was evaluated for the potency of sweet taste when sweetness of sucrose is taken as 1 on a weight basis; 2500-3000.
Turning to `N#Cc1ccc(NC(=O)[C@H](CC(=O)O)NC(=O)C(F)(F)F)cc1`, the Taste stood at 2500. `N#Cc1ccc(NC(=O)C(CCC(=O)O)NC(=O)C(F)(F)F)cc1` (centres undefined) returned a Taste of 2500.

Another experiment can be described thus: Compound was evaluated for the potency of sweet taste when sweetness of sucrose is taken as 1 on a weight basis; 15-30.
`N#Cc1ccc(NC(=O)C(N)CC(=O)O)cc1` (centres undefined) gave a Taste of 15. `N#Cc1ccc(NC(=O)C(N)CCC(=O)O)cc1` (centres undefined): the Taste was determined as 15.

Another experiment is described as follows: Compound was evaluated for the potency of sweet taste when sweetness of sucrose is taken as 1 on a weight basis; Not sweet. Format: functional.
In the case of `N#Cc1ccc(NC(=O)C(N)C(=O)O)cc1` (centres undefined), the Taste stood at 0. In the case of `COC(=O)[C@H](Cc1ccccc1)NC(=O)[C@@H](N)CCC(=O)O`, the Taste came to 0.

Consider `COC(=O)C(Cc1ccccc1)NC(=O)C(NC(=O)C(F)(F)F)C(=O)O` (centres undefined), for which the Taste stood at 0. Take `N#Cc1ccc(NC(=O)C(NC(=O)C(F)(F)F)C(=O)O)cc1` (centres undefined): the Taste worked out at 0.

On to `N#Cc1ccc(NC(=O)CC(NC(=O)C(F)(F)F)C(=O)O)cc1` (centres undefined), for which the Taste is 0. Same read-out and setting: in the case of `N#Cc1ccc(NC(=O)C(CC(=O)O)NC(=O)C(F)(F)F)cc1` (centres undefined) it was 0. `N#Cc1ccc(NC(=O)C(CCCC(=O)O)NC(=O)C(F)(F)F)cc1` (centres undefined) yielded a Taste of 0. The same measure, in the same setting: next, `N#Cc1ccc(NC(=O)C(CCC(=O)O)NC(=O)C(F)(F)F)cc1` (centres undefined): 0. In turn, `N#Cc1ccc(NC(=O)CCC(NC(=O)C(F)(F)F)C(=O)O)cc1` (stereo in doubt; 9) yielded a Taste of 0.

Regarding `N#Cc1ccc(NC(=O)C[C@@H](NC(=O)C(F)(F)F)C(=O)O)cc1`, the Taste was 0.

The compound `N#Cc1ccc(NC(=O)CCC(NC(=O)C(F)(F)F)C(=O)O)cc1` (stereo in doubt; 11) showed a Taste of 0.

Consider `COC(=O)C(Cc1ccccc1)NC(=O)C(CCC(=O)O)NC(=O)C(F)(F)F` (centres undefined), for which the Taste turned out to be 0.

The next experiment is described as follows: Compound was evaluated for the potency of sweet taste when sweetness of sucrose is taken as 1 on a weight basis; 150-200.
For the compound `COC(=O)C(Cc1ccccc1)NC(=O)C(CC(=O)O)NC(=O)C(F)(F)F` (stereo not drawn) (Tfa-Asp-Phe-OMe; configuration not given here), the Taste worked out at 150.

`COC(=O)[C@H](Cc1ccccc1)NC(=O)C(N)C(=O)O` (some centres undefined) yielded a Taste of 150.

On to `COC(=O)[C@H](Cc1ccccc1)NC(=O)[C@@H](N)CC(=O)O`, for which the Taste was 150.

These data come from ChEMBL document CHEMBL1122038, “Peptide sweeteners. 5. Side-chain homologues relating zwitterionic and trifluoroacetylated amino acid anilide and dipeptide sweeteners” (J Med Chem, 1982).
